The target of test [1] is human wild type FGFR2 (Homo sapiens (Human), UniProt P21802). Nature of the test: FGFR2 pFGFR Cell Assay. In kind it is cell-based. The following applies: HEK-293 cells, 1 hour compound, 30 ng/ml human FGF-acidic, ELISA. The procedure:
(§1) HEK-293 cells transfected with dox-inducible human wild type FGFR2 (SEQ ID NO: 3) were plated in a collagen or poly-D-lysine coated 96 well flat bottom plates at 4×10^5 cells/well in complete DMEM medium containing 10% FBS and 1 μg/ml doxycycline and allowed to attach for 24 h at 37° C., 5% CO2. Cells were treated with compound using 1:3 serial dilutions with a maximum final concentration of 5 μM. Compound was incubated on cells for 1 hour at 37° C., 5% CO2. Cells were then stimulated with a final concentration of 30 ng/ml human FGF-acidic (R&D Systems Cat number 232-FA/CF) for 5 minutes at 37° C., 5% CO2. Medium was removed and cells were lysed with lysis buffer containing phosphatase and protease inhibitors. Phospho FGFR2 was measured by ELISA (R&D Systems cat. no. DYC684). The ELISA captures total FGFR2 and detects total phospho tyrosine. Optical density was measured for each well using a Versamax reader at a wavelength of 450 nm. 100 POC was determined using no test compounds and 0 POC was determined using a control compound. The POC values were fit to a 4-parameter logistic curve as a function of the concentration of the compound, and the IC50 value is the point where the curve crosses 50 POC.
(In general: In an ELISA, binding on a coated surface is turned into a signal by an enzyme label.)

The target of test [2] is human wild type FGFR3 (Homo sapiens (Human), UniProt P22607). Briefly: FGFR3 pFGFR Cell Assay. In kind it is cell-based. Particulars: HEK-293 cells, 1 hour compound, 100 ng/ml human FGF-acidic, ELISA. The procedure: as §1, with “FGFR3” for “FGFR2”, “5)” for “3)”, “top” for “maximum”, “100” for “30”, “FGF-acidic” for “FGF-acidic (R&D Systems Cat number 232-FA/CF)”, “cat DYC2719).” for “cat. no. DYC684).”

In test [3] the target is dephosphorylated FGFR2 (Homo sapiens (Human), UniProt P21802). Nature of the test: FGFR Enzyme Binding Assay (HTRF tracer displacement), FGFR2. The following applies: 5 nM dephosphorylated FGFR2, 60 minute incubation at 22° C.; read-out: FGFR2 Enz Binding IC50. As to the method: The potency of compounds inhibiting human isoforms of FGFR kinase was determined using Life Technologies' Homogeneous Time Resolved Fluorescence (HTRF)-based binding assay technology. An incubation was conducted with either 5 nM dephosphorylated FGFR1 (Array Biopharma, p1702; SEQ ID NO: 1, amino acids 458 to 765, dephosphorylated by co-expression with PTP1b (protein tyrosine phosphatase 1B)), 5 nM dephosphorylated FGFR2 (Life Technologies, Cat. No. PV4106 that had been dephosphorylated with Lambda protein phosphatase (New England Biolabs, cat #P0753)) or 5 nM phosphorylated FGFR3 (Array Biopharma, p1836; SEQ ID NO: 5, amino acids 449 to 759), 50 nM Kinase Tracer 236 (Life Technologies Cat. No. PR9078A), 2 nM Biotin-anti-6HIS (Life Technologies Cat. No. PV6090) and 2 nM Europium-Streptavidin (Life Technologies Cat. No. PV6025) along with test compound in a buffer consisting of 50 mM HEPES ((4-(2-hydroxyethyl)-1-piperazineethanesulfonic acid, pH 7.5), 5 mM MgCl2, 0.005% Triton X-100, 1 mM DTT, 1 mM NaVO4 and 2% DMSO in a final volume of 12 μL Compounds were typically prepared as a 3-fold or 4-fold serial dilution in DMSO and added to the assay to give the appropriate final concentration. After a 60 minute incubation at 22° C., the extent of tracer displacement was determined using a PerkinElmer EnVision multimode plate reader via HTRF dual wavelength detection, and the percent of control (POC) was calculated using a ratiometric emission factor. One hundred POC was determined using no test compound, and 0 POC was determined in the presence of 1 μM of an appropriate control inhibitor. A 4-parameter logistic curve was fit to the POC values as a function of the concentration of compound, and the IC50 value was the point where the best-fit curve crossed 50 POC.
(In TR-FRET formats the signal depends on donor and acceptor labels being close together.)

The target in test [4] is FGFR3 (Homo sapiens (Human), UniProt P22607). Briefly: FGFR Enzyme Activity Assay (LanthaScreen TR-FRET), FGFR3. The class given is biochemical. Particulars: 25 μM ATP, 10 minute incubation; read-out: FGFR3 Enz FRET IC50. The procedure: FGFR3 kinase activity was measured by the Invitrogen LanthaScreen™ Assay technology which directly measures the amount of substrate phosphorylation by TR-FRET using a flourescently-labeled peptide and Europium-labeled antibody. Briefly, 750 pM N-terminal GST-HIS6 fusion protein with a 3C cleavage site recombinant human FGFR3 (amino acids R397-T806) (ProQinase Cat. No. 1068-0000-1) was incubated with 100 nM Alexa Fluor® 647-Poly-GT Peptide Substrate (Life Technologies Cat. No. PV5836) and 25 μM ATP along with test compound in a buffer consisting of 250 mM HEPES, 25 mM MgCl2, 0.05% TritonX-100, pH 7.5, and 2% DMSO. Compounds were typically prepared in a threefold serial dilution in DMSO and added to the assay to give the appropriate final concentration. After a 10 minute incubation at 22° C., an equal volume of 2 nM LanthaScreen® Eu-PY20 Antibody (Life Technologies Cat. No. PV5691) and 10 mM EDTA were added to quench the kinase reaction and start the detection reaction. After an additional 60 minute incubation at 22° C., the reaction was measured using a PerkinElmer EnVision multimode plate reader via TR-FRET dual wavelength detection, and the percent of control (POC) calculated using a ratiometric emission factor. 100 POC was determined using no test compounds and 0 POC was determined using no enzyme. The POC values were fit to a 4-parameter logistic curve as a function of the concentration of the compound, and the IC50 value is the point where the curve crosses 50 POC.

Here are results for two compounds from patent US12351571B2, “Substituted quinoxaline compounds as inhibitors of FGFR tyrosine kinases” (ARRAY BIOPHARMA INC., priority 2018, dated 2025).

For orientation: IC50 means the concentration that gives 50% inhibition.

Chain of human wild type FGFR3 (P22607 23-806): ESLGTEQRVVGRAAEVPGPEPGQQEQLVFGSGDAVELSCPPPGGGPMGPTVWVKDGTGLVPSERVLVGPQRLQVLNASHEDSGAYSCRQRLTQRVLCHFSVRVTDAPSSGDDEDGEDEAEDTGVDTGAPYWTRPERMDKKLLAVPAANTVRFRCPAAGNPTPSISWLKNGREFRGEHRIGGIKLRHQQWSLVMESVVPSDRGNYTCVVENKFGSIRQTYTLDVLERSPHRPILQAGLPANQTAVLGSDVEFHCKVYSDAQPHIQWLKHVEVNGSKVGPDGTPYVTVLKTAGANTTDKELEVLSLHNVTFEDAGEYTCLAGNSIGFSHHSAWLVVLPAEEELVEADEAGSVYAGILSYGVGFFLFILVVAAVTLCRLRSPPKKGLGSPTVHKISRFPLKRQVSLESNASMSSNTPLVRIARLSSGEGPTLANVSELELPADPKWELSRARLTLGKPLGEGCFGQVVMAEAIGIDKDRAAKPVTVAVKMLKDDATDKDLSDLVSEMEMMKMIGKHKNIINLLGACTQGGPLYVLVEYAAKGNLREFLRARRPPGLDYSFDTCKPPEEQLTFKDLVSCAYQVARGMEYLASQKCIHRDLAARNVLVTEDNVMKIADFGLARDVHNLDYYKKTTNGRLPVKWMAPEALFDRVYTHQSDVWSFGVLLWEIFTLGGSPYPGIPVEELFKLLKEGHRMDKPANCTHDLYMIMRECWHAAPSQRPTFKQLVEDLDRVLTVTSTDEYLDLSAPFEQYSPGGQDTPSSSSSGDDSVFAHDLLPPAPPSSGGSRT
Chain of dephosphorylated FGFR2 (P21802 22-821): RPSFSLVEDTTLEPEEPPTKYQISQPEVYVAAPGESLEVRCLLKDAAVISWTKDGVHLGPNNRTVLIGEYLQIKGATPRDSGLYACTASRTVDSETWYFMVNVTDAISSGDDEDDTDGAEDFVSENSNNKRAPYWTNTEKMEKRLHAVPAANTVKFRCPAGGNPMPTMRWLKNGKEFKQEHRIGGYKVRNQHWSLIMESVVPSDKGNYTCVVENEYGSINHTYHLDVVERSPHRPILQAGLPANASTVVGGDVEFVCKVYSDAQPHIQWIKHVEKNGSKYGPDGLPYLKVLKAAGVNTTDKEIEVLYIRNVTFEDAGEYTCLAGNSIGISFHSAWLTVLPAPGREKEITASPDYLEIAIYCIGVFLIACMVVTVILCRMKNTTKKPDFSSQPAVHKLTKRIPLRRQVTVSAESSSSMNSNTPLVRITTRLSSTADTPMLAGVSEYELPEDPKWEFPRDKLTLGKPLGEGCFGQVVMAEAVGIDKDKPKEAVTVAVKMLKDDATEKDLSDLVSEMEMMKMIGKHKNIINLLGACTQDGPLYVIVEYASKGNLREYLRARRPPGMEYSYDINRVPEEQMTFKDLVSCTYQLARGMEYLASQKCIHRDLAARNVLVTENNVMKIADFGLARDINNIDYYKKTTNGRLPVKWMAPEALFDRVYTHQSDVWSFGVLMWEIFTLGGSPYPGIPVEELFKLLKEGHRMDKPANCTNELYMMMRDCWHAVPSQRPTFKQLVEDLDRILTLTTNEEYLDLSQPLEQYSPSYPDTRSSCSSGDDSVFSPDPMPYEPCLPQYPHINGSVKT
Chain of human wild type FGFR2 (P21802 22-821): as above
Chain of FGFR3 (P22607 397-806): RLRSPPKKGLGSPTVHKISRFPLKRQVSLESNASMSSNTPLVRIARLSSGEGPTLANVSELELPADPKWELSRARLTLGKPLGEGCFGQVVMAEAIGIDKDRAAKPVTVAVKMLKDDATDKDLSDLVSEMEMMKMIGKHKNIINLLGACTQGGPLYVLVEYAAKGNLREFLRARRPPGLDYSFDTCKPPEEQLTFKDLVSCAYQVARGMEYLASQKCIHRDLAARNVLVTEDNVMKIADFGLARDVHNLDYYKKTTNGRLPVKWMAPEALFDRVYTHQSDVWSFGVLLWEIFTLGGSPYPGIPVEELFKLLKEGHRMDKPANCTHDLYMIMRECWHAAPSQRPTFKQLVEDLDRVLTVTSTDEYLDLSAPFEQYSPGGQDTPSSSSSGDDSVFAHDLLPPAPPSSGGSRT

Consider `C=CC(=O)N1CC[C@@H](C(=O)N2CCC(n3cc(-c4cnc5ccc(Nc6cc(OC)cc(OC)c6)cc5n4)cn3)CC2)C1` [Example 2, (R)-1-(3-(4-(4-(7-((3,5-dimethoxyphenyl)amino)-quinoxalin-2-yl)-1H-pyrazol-1-yl)piperidine-1-carbonyl)pyrrolidin-1-yl)-prop-2-en-1-one], for which the IC50 in test [1] was found to be 117 nM; in test [2], 121 nM; in test [3] it was 6 nM; in test [4], 10 nM.

`C=CC(=O)N1CCC(C(=O)N2CCC(n3cc(-c4cnc5ccc(Nc6cc(OC)cc(OC)c6)cc5n4)cn3)CC2)CC1` [Example 3, 1-(4-(4-(4-(7-((3,5-dimethoxyphenyl)amino)-quinoxalin-2-yl)-1H-pyrazol-1-yl)piperidine-1-carbonyl)piperidin-1-yl)prop-2-en-1-one]: the IC50 in test [1] was 69 nM; in test [2], 89 nM; in test [3], 5 nM; in test [4], 10 nM.
